Results as given in patent US9724391B2, “Combination preparation including a corticosteroid and exosomes” (ORTHOGEN AG, priority 2009, dated 2017).

What was measured:
[1] = test system: patient with complete alopecia; settings: systemic and local application, high doses (10-80 mg prednisolone)
[2] = test system: patient with psoriasic arthritis; settings: cortisone 20-40 mg intraarticular, effect for some days; combination after a few days
[3] = test system: patient with partial rotator cuff rupture and complete shoulder stiffness le; settings: before combination therapy
Experimental: Surgery appointment for the left shoulder was made. Here it should be tried to avoid surgery. […] 2 ml Orthokine were administered into the shoulder with 10 mg Anakinra and 10 mg triamcinolone via a syringe. […] The therapy was continued until day 4.

[4] = test system: patient with severe neurodermitis; experiment: Case IX: severe neurodermitis, intramuscular application; assay type: in vivo, human; settings: systemic intramuscular application, doses of 80 mg
Experimental: FIG. 1A to FIG. 1C show pictures of the feet of a neurodermitis patient whose case is described below as case IX (Example 4).
Case IX: • Severe dermatologically verified neurodermitis with strong changes, especially in the area of hands and feet. […] After that, attempt of intramuscular application of 2 ml of exosomes in connection with 20 mg triamcinolone. […] Subsequent slight deterioration but still improvement compared to preliminary findings. FIG. 1A describes the dermatological changes at both feet immediately before treatment, FIG. 1B and FIG. 1C one week after treatment for the right/left foot.

[5] = test system: patient with gonarthrosis ri, cartilage defects degree 2-4 according to Outerbridge; experiment: Case VIII: gonarthrosis ri, intraarticular injection into the right knee; assay type: in vivo, human; settings: triamcinolone 10-40 mg intraarticular (history); exosomes one-time intraarticular, after 4 weeks
Experimental: Case VIII: • Gonarthrosis ri with cartilage defects verified arthroscopically degree 2-4 according to Outerbridge. The patient wishes to delay surgery and joint replacement. History of intraarticular injection of triamcinolone in doses of 10-40 mg to no effect. Injection of 1 ml of exosomes prepared by means of the technique as described after incubation with IL-1Ra. […] Afterwards decision for an intraarticular injection into the right knee combined with 10 mg triamcinolone.

[6] = test system: patient with severe therapy-resistant rheumatoid arthritis; settings: after one week; triamcinolone alone 10 mg to 40 mg intraarticular, combination with total 20 mg triamcinolone
Experimental: Injection of exosomes (after incubation with IL-1Ra) and admixing total amount of 20 mg triamcinolone in MCP2-5 ab. and both shoulders.

[7] = test system: patient with severe Bechterew arthritis; experiment: Case X: severe Bechterew arthritis, injection into the affected joints; assay type: in vivo, human; settings: total dose 40 mg into all affected joints; for 1 week
Experimental: Case X • Severe Bechterew arthritis with iridocyclitis left eye. Patient is given prednisolone and MTX in changing doses as basic therapy. CRP 20_3 mg/l; left CFJ clearly swollen with +2 cm compared to the other side; left MCP and first knuckle 1st finger left clearly swollen and painful, right shoulder swollen, painful, abduction reduced by 30 degrees compared to normal. […] CRP within 1 week reduced from 20.3 mg/l to 2.9 mg/l.

osteoarthritis = settings: in vivo; cited from earlier work

## C[C@]12CCC(=O)C=C1CC[C@@H]1[C@@H]2C(=O)C[C@@]2(C)[C@H]1CC[C@]2(O)C(=O)CO [cortisone]
[1]
  effect of earlier therapy attempts on alopecia: without effect
[2]
  pain reduction: 10-30%
[3]
  outcome of numerous earlier injections into the left shoulder: without success

## C[C@]12C=CC(=O)C=C1CC[C@@H]1[C@@H]2[C@@H](O)C[C@@]2(C)[C@H]1CC[C@]2(O)C(=O)CO [prednisolone]
[4]
  duration of short-term effect: 1 week

## C[C@]12C=CC(=O)C=C1CC[C@H]1[C@@H]3C[C@@H](O)[C@](O)(C(=O)CO)[C@@]3(C)C[C@H](O)[C@@]12F [triamcinolone]
[5]
  clinical effect regarding pain and function of single agents: to no effect
[6]
  pain improvement / pain reduction: 20%
[7]
  improvement: 20%
[4]
  duration of short-term effect: 1 week

## Anakinra: recombinant human IL-1 receptor antagonist, amino acids 26-177, terminally L-methionylated, 153 amino acids
osteoarthritis
  effects in the treatment of osteoarthritis compared to a placebo treatment: did not show any effects
